# Measurements reported in paper PMC6828666, “Discovery of holoenzyme-disrupting chemicals as substrate-selective CK2 inhibitors” (Scientific Reports, 2019).
# How the values were obtained:
# [1] = biological target: T1, CK2 (Homo sapiens, UniProt P68400); experiment: CK2 kinase assay with CK2β-independent peptide substrate […]; type: biochemical
# T1 construct: made in house; host or cells: Escherichia coli (CK2α)
# Procedure: The following peptide substrates were employed: a canonical CK2 peptide substrate […] phosphorylated equally by CK2α and CK2α2β2 (CK2β-independent peptide substrate), and […] exclusively phosphorylated by CK2α2β2 (CK2β-dependent peptide substrate)[4]. GST-Olig2-(1-177), was used as a CK2β-dependent protein substrate.
# CK2 kinase assays were performed in a final assay volume of 18 μL containing 3 μL of compounds, 3 μL of CK2α (36 ng) and a mixture of 1 mM peptide substrate, 10 mM MgCl2, and 1 μCi [γ^32P]-ATP. Final concentration of ATP was 100 μM. Assays were performed under linear kinetic conditions for 5 min at room temperature before termination by the addition of 60 μL of 4% TCA. ^32P incorporation in peptide substrate was determined as previously described.
# Fig. S6. […] (a) Dose-dependent inhibition of CK2. CK2α (40 nM) was incubated with increasing concentrations of compound 1 (●), 4 (π) or 6 (○) in the presence of 20 nM CK2β. CK2 activity was determined with a saturating concentration of CK2β-dependent peptide substrate. (b) Differential effects of 6 on the phosphorylation of CK2 peptide substrates. CK2α (40 nM) was incubated with increasing concentrations of 6 in the presence of 20 nM CK2β. CK2 activity was determined with a saturating concentration of CK2β-independent peptide substrate (?) or CK2β-dependent peptide substrate (○). […]
# [2] = system: PARP cleavage in MCF10A cells; experiment: Western blot of PARP cleavage; type: cell-based, human; details: 24 h, 25 μM 6 or 30 μM TAT-Pc
# Procedure: Figure 5 Cellular effects of compounds 3, 4 and 6. MCF10A cells were incubated for 24 h with either DMSO or 30 μM TAT or 30 μM TAT-Pc or 25 μM 6 (a) or with increasing concentrations of 6 (b) or 3 (c). MCF10A cells were incubated for 48 h with either DMSO or with increasing concentrations of 3 or 6 (d). Cells were then lysed and analyzed by western blot with the indicated antibodies. Blot images are representative of at least three independent experiments. Uncropped blots are shown in Supplementary Fig. S16. (e) MDA-MB231 cells were treated with 40 μM 6 (⚬), 4 (▴) or 3 (X). (f) MDA-MB231 cells were treated for 30 h with increasing concentrations of 6 (⚬) or 4 (▴). Insert: cells were treated for 30 h with 80 μM 6 or 10 μM CX-4945. […] Cell death was automatically quantified from images captured every 3 h for the duration of the experiments using an Essen IncuCyte Zoom live-cell microscopy incubator. […]
# Cells were lysed in RIPA buffer (10 mM Tris-HCl pH 7.4, 150 mM NaCl, 1% Triton X-100, 0.1% SDS, 0.5% DOC and 1 mM EDTA) containing both protease- and phosphatase-inhibitor cocktails (Sigma-Aldrich; P8340, P2850, P5726). Cell homogenates were quantified using BCA protein Assay kit (Thermo Scientific). […] Luminata Forte Western HRP substrate (Millipore) was added and membranes were read with Fusion Fx7 (PerkinElmer). […] Images were analyzed and band intensities were quantified using ImageJ software. […]
# [3] = system: MDA-MB231 cells; experiment: Scratch wound cell migration assay; type: cell-based; details: MDA-MB231, 40 μM
# Procedure: Cells seeded at equal density were allowed to grow to confluence overnight. The Essen Bioscience WoundMaker^TM, an accessory for the IncuCyte Zoom®, was utilized to create Scratch-wounds of a standardized width (~600 μm). Cells were treated with the indicated inhibitors and imaged every 15 min for 44 h and the percentage of wound confluence was analyzed.
# Fig. S10. […] MCF10A cells (a) or MDA-MB231 cells (b) were allowed to grow to confluence overnight. Wounds of a standardized width were created using the Essen Bioscience WoundMakerTM. […] Wound closure was monitored using the Essen IncuCyte Zoom live-cell microscopy incubator. Images were captured every 2 h for the duration of the experiment. Error bars represent the SEM of two biological replicates derived from technical triplicates.
# [4] = Solubility in the protein buffer (WaterLOGSY NMR); type: physicochemical; details: relative to the other compounds
# Procedure: Standard 1D, STD, and WaterLOGSY NMR spectra were acquired at 20 °C with a Bruker 600 MHz NMR spectrometer, equipped with a Z-gradient cryoprobe. WaterLOGSY mixing time was 1.5 s. Both STD and WaterLOGSY spectra were recorded for each sample. WaterLOGSY spectra in the absence of protein receptor were recorded with 300 µM compound to assess the compound solubility. All the NMR experiments were performed at 293 K with excitation sculpting to suppress peaks from water. 1D and STD experiments were performed using identical experimental conditions (spin lock, interscan delays), and parameters for the STD experiments (saturation frequency and saturation time) were identical for all samples. […] NMR tubes contained 2 μM CK2 with 300 μM of 4.
# T1 sequence (P68400 whole entry): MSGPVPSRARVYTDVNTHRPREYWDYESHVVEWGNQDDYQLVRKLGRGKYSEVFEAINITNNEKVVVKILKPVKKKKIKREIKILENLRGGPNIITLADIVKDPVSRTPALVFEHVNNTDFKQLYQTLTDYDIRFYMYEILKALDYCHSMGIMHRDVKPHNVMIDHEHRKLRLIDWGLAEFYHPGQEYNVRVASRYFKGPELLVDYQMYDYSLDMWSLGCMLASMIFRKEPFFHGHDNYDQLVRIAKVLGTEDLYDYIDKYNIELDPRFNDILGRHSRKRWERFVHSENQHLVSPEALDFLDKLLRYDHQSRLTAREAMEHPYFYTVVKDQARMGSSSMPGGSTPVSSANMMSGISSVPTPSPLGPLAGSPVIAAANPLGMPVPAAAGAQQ
smiles,measurement,setting,value
COc1[nH]c2ccc(F)cc2c1C(=O)OCC1CCN(CCNS(=O)(=O)c2ccccc2)CC1.Cl [Compound 6],phosphorylation of the CK2β-independent peptide substrate,"[1]; increasing concentrations, 40 nM CK2α, 20 nM CK2β",only weakly affected
same,PARP cleavage,[2],No significant PARP cleavage
same,cell migration / wound closure,[3],completely abrogated
"O=C(OCC1CCN(CCNS(=O)(=O)c2ccccc2)CC1)c1c[nH]c2ccccc12 [Compound 4, (1-(2-(Phenylsulfonamido)ethyl)piperidin-4-yl)methyl 1H-indole-3-carboxylate]",solubility in the protein buffer,[4],highest solubility
COc1[nH]c2ccc(F)cc2c1C(=O)OCC1CCN(CCNS(C)(=O)=O)CC1 [Compound 1],inhibition at 50 µM,"[1]; at 50 μM, read-out: inhibition of phosphorylation of canonical CK2β-independent peptide substrate",15%
"CS(=O)(=O)NCCN1CCC(COC(=O)c2c[nH]c3ccccc23)CC1 [Compound 3, (1-(2-(Methylsulfonamido)ethyl)piperidin-4-yl)methyl 1H-indole-3-carboxylate]",cell migration / wound closure,[3],not affected
